Test results published in US20260206752A1, “MOLECULE HAVING PESTICIDAL UTILITY AND PROCESSES RELATED THERETO” (CORTEVA AGRISCIENCE LLC, priority 2022, published 2026).

Experiments:
M. incognita = test: Residuality test in soil against root knot nematode; format: in vivo, Meloidogyne incognita; conditions: 1250 g ai/ha on bare soil, aged four weeks, then seedlings and 4,000 J2s, evaluated after 14 days
Procedure: A residuality test was conducted to compare the residual control or persistence of S1, R1, C1, C2, C3, C4, and C5 in soil. Each compound was applied to a bare sandy loam soil (without plant or nematode) in a 3-inch pot at 1250 g ai/ha. The treated soils were kept in a Greenhouse (temperature 27° C.) under regular irrigation for four weeks. At the end of the four weeks, six-day old cucumber (Cucumis sativus) seedlings were transplanted into the treated soil and inoculated with 4,000 second stage juveniles of M. incognita. Each treatment was replicated four times. The inoculated plants were kept in a Greenhouse for 14 days (temperature 27° C.) before evaluating the amount of root damage (galls) called Galling Index (GI) based on a scale of 0-10; where 0=no galls (100% nematode control), and 10=maximum galls (no nematode control). The GI were converted to % control using the formula ((10−GI)×10); where GI=Gall Index. The data were analyzed by Analysis of Variance using JMP (John's Macintosh Project) statistical software and the means were separated using Tukey's HSD (α=0.05).

Meloidogyne incognita [1] = test: Root knot nematode comparative bioactivity test at 600 g ai/ha, drench on cucumber seedlings; format: in vivo; conditions: 14 days after inoculation, (10−GI)×10
Procedure: We carried out an experiment to evaluate comparative bioactivity of S1, C1, C2, C3, C4, and C5 against the root knot nematode, Meloidogyne incognita. Each compound was tested at 600 grams of active ingredient per hectare (g ai/ha) and was replicated three times. Cucumber seeds (Cucumis sativus) were planted in a sandy loam soil in 3-inch pots. After six (6) days of planting, the seedlings were treated with the test compounds dissolved in 5% acetone in water by drench application. The plants were inoculated with 4,000 second stage juveniles (J2s) of M. incognita. The inoculated plants were kept in a Greenhouse for 14 days (temperature 27° C.) before evaluating the amount of root damage (galls) called Galling Index (GI) based on a scale of 0-10; where 0=no galls (100% nematode control), and 10=maximum galls (no nematode control). The GI was converted to % nematode control using the formula ((10−GI)×10); where GI=Gall Index. The data were analyzed by Analysis of Variance using JMP (John's Macintosh Project) statistical software and the means were separated using Tukey's HSD (α=0.05).

[2] = test system: Heterodera glycines second stage juveniles (J2); test: Soybean Cyst Nematode (SCN) in-vitro mortality test; format: in vivo; conditions: SCN LC50
Procedure: We carried out an in-vitro experiment to compare activity of S1, R1, and B1 with each other against the soybean cyst nematode (SCN): Heterodera glycines second stage juveniles (J2). Each of S1, R1, and B1 were tested at six rates: 62.5, 15.6, 4, 1, 0.25, and 0 ppm (untreated control, UTC with three replications of each treatment. Equal volume of nematode suspension was added to an equal volume of compound dissolved in 0.5% DMSO (dimethyl sulfoxide) in water. The nematode plus compound was incubated at room temperature (about 25° C.) on a shaker at 95 revolutions per minutes (RPM). Aliquots of 0.5 milliliters (mL) of the nematode suspension were evaluated under a microscope for mortality after 48 hours of incubation. SCN J2s were counted, and the number of dead and active nematodes was used to calculate % SCN mortality which was used to generate lethal concentration (LC) values by probit analysis.

Pratylechus penetrans = test: Root Lesion Nematode (RLN) in-vitro mortality test; format: in vivo; conditions: RLN LC50
Procedure: We carried out an in-vitro experiment to compare activity of S1, R1, and B1 with each other against the root lesion nematode (RLN), Pratylechus penetrans. Each of S1, R1, and B1 were tested at six rates: 62.5, 15.6, 4, 1, 0.25, and 0 ppm (UTC) with three replications of each treatment. Equal volume of nematode suspension was added to an equal volume of each of S1, R1, and B1 dissolved in 0.5% DMSO (dimethyl sulfoxide) in water in 25 mL vials. The treated nematode suspension was incubated at room temperature (about 25° C.) on a shaker (95 RPM). Aliquots of 1 mL of the nematode suspension was evaluated under a microscope for mortality after 48 hours. RLN were counted, and the number of dead and active nematodes was used to calculate % mortality from which lethal concentration (LC) values were generated.

Meloidogyne incognita [3] = test: Root Knot Nematode (RKN) test on cucumber seedlings in pots, Galling Index converted to % control, EC by probit analysis; format: in vivo; conditions: RKN EC50
Procedure: (§1) We conducted an experiment to evaluate comparative bioactivity of S1, R1, and B1 against the root knot nematode (RKN), Meloidogyne incognita. Each of S1, R1, and B1 were tested at six rates: 125, 62.5, 31.25, 15.6, 7.8, 3.9, and 2 ppm. Cucumber seeds (Cucumis sativus) were planted in a sandy loam soil in 3-inch pots. After 6 days of germination, the seedlings were treated with the test compounds dissolved in 5% acetone in water. The treated plants were inoculated with 4,000 second stage juveniles (J2s) of M. incognita. Each experimental unit was replicated three times. The inoculated plants were kept in a Greenhouse for 14 days (about 27° C.) before evaluating the amount of root damage (galls) called Galling Index (GI) based on a scale of 0-10; where 0=no galls (100% control), and 10=maximum galls (no control). The GI was converted to % control using the formula (10−GI)×10; where GI=Gall Index. Effective concentration (EC) values based on the % control of the nematode by S1, R1 and B1 were calculated by probit analysis.

[4] = test system: root knot nematode, soybean cyst nematode, root lesion nematode; test: Average of Delta % over the RKN, SCN and RLN tests of Example One; format: in vivo
Procedure: as §1, with “The GI was converted to % control using the formula (10−GI)×10; where GI=Gall Index.” left out, “analysis. […]” for “analysis.”
We carried out an in-vitro experiment to compare activity of S1, R1, and B1 with each other against the root lesion nematode (RLN), Pratylechus penetrans. […] Aliquots of 1 mL of the nematode suspension was evaluated under a microscope for mortality after 48 hours. RLN were counted, and the number of dead and active nematodes was used to calculate % mortality from which lethal concentration (LC) values were generated.

SMILES	Mean Percent Control (M. incognita)	Mean Percent Control (Meloidogyne incognita [1])	Delta % vs B1 [2]	Delta % vs B1 (Pratylechus penetrans)	Delta % vs B1 (Meloidogyne incognita [3])	Delta % on average, S1 versus B1 [4]
C[C@H](NC(=O)c1ccoc1Cl)C(C)(C)C [Molecule C1]	27.5%	54%				
CCC(CC)[C@H](C)NC(=O)c1ccoc1Cl [Molecule S1, (S)-2-chloro-N-(3-ethylpentan-2-yl)furan-3-carboxamide]			1194%	259%	240%	564%
